Patent publication US10897891B2, “Compositions and methods for prolonged cell storage” (Board of Regents, The University of Texas System, priority 2015, dated 2021)

Tested on: macrophage like cell line U937
Assay: Platelet binding to the macrophage like cell line U937 (Experiment E)
Type: cell-based, human
Conditions: 2% PEG-400, 5° C. overnight
Protocol: U937 is a cell line derived from a patient with Acute Myelo-Monocytic Leukemia. […] In this binding experiment 5 day old platelets from the blood bank are held in a standard storage media referred to as ACD on a flat-bed shaker under standard conditions of rotation. ‘ACD’ contains […], Sodium Citrate, and Dextrose. These platelets were split into two conditions, control and 2%/0 PEG-400, in a 12 well plate format with a final volume of 100 ul per well. All wells were incubated overnight at 5° C. All wells where then stained with fluorescein Diacetate (Sigma product F7378). This agent was protected from light and 1 mg was dissolved in 10 ml acetone and stored at −70° C. FDA was diluted […] in PBS immediately prior to use (Miyamoto el al., 2000.) All platelet wells received 2.5 ug final per well of fluorescein diacetate (FA) contained in 50 ul PBS. After 1 hr at room temp a further 100 ul of PBS was added and the 12 well plates were centrifuged at 3000 g for 20 min at RT. 150 ul excess fluid was carefully removed from all wells and discarded. Platelets were gently suspended. […] Wells were examined and photographed with an inverted fluorescence microscope. […]
Control conditions had standard 75 ul of ACD suspended platelets, plus 25 μl PBS in the control wells. […] Wells were examined with an inverted fluorescence microscope.

What does the source list for Polyethylene glycol [PEG-400]?
adsorption of cold stored platelets to U937 cells: substantially block adsorption of cold stored platelets to macrophage like cells; adsorption of cold stored platelets to U937 cells (listed as PEG): only a few attached strongly fluorescent platelets
